Assay results reported in BindingDB's records for doi:10.3109/14756366.2010.515215 (Gyeongsang National University, 2011).

Columns and labels:
Experiment in all cases: In Vitro Kinase Assay
Conditions in all cases: pH 7
[1] = target: ALK tyrosine kinase receptor (Homo sapiens, UniProt Q9UM73)
Procedure: (§1) Inhibition of kinase activity against a variety of recombinant kinases [FLT3, FLT3 D835Y, anaplastic lymphoma kinase (ALK), insulin receptor, and epidermal growthfactor receptor (EGFR)] was measured using homogeneous time-resolved fluorescence (HTRF) assays [Choi et al., Bioorg. Med. Chem. Lett., 20:2033-2037]. Assays consist of enzymes mixed with serially diluted compounds and peptide substrates in a kinase reaction buffer (250 mM HEPES (pH 7.0), 0.5 mM orthovanadate, 0.05% bovine serum albumin, 0.1% NaN3). Following the addition of reagents for detection, the TR-FRET signal was measured using an EnVision multi-label reader (Perkin Elmer, Waltham, MA).

[2] = target: Epidermal growth factor receptor (Homo sapiens, UniProt P00533)
Epidermal growth factor receptor, sequence (P00533 whole entry): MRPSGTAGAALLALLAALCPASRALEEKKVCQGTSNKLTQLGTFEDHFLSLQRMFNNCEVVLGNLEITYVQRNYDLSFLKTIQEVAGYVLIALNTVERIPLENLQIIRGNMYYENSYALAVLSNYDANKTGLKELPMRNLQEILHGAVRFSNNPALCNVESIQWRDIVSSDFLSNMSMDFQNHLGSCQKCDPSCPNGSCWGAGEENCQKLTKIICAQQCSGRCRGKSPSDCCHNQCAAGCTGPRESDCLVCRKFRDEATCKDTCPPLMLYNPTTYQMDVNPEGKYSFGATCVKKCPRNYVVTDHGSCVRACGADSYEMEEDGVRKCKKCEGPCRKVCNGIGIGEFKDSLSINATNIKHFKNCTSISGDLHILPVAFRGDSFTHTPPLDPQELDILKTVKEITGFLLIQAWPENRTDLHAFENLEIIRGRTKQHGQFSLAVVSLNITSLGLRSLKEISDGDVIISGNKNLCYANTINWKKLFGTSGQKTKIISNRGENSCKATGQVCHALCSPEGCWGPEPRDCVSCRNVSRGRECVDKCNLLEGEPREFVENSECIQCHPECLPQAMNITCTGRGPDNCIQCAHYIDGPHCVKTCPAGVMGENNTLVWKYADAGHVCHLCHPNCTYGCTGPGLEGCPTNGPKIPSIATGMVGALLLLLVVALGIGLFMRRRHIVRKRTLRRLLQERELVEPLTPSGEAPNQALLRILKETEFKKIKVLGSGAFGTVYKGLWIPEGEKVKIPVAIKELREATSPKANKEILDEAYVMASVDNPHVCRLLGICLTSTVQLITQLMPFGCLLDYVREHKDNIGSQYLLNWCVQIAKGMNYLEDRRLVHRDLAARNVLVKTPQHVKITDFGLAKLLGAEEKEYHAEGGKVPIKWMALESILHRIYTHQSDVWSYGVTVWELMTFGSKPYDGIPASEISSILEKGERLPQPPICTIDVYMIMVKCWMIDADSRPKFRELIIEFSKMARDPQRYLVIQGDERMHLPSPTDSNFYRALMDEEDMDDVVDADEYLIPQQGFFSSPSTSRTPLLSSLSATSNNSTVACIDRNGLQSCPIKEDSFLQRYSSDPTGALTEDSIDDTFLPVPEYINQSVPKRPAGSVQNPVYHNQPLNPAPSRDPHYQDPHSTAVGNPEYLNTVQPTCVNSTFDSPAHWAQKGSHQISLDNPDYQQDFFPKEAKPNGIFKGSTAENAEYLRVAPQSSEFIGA
Procedure: as §1

Insulin receptor = Insulin receptor (Homo sapiens, UniProt P06213)
Insulin receptor, sequence (P06213 28-758 limits assumed): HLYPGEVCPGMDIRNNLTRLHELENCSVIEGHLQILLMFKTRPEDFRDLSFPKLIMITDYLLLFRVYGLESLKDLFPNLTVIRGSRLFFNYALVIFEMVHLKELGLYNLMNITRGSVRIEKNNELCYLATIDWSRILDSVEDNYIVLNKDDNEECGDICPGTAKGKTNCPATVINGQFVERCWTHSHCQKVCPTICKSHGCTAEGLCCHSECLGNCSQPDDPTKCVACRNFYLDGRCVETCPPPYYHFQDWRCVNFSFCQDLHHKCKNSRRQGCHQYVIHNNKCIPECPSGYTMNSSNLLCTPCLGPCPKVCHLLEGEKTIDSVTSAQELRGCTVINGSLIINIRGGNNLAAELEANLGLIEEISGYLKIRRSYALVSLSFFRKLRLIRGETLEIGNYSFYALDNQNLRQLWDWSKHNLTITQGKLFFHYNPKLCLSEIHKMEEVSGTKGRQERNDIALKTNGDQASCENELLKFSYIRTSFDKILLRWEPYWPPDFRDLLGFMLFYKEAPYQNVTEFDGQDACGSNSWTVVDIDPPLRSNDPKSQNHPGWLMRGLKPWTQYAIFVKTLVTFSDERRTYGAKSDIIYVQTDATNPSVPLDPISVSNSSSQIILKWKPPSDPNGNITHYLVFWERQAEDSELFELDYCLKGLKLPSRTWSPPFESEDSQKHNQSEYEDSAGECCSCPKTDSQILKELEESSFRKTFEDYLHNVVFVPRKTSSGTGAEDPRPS
Insulin receptor, sequence (P06213 763-1382 limits assumed): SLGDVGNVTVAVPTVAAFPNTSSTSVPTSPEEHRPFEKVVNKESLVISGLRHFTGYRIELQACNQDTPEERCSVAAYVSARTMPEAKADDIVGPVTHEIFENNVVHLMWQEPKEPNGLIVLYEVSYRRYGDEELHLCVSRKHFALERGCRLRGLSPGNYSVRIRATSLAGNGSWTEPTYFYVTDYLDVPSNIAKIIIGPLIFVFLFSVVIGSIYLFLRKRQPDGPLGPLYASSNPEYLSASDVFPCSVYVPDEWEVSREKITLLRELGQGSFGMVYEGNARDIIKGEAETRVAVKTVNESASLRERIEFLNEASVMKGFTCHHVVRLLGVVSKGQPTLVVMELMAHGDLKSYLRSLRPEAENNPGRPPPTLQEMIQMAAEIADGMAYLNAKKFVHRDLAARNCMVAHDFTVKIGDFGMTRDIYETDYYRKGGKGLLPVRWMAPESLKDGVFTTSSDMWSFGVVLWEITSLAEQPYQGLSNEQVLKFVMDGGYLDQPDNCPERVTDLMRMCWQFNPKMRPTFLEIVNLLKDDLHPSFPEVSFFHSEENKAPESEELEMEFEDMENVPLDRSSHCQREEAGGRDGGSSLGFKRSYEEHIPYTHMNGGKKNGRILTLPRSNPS
Procedure: as §1

ALK tyrosine kinase receptor, sequence (Q9UM73 whole entry): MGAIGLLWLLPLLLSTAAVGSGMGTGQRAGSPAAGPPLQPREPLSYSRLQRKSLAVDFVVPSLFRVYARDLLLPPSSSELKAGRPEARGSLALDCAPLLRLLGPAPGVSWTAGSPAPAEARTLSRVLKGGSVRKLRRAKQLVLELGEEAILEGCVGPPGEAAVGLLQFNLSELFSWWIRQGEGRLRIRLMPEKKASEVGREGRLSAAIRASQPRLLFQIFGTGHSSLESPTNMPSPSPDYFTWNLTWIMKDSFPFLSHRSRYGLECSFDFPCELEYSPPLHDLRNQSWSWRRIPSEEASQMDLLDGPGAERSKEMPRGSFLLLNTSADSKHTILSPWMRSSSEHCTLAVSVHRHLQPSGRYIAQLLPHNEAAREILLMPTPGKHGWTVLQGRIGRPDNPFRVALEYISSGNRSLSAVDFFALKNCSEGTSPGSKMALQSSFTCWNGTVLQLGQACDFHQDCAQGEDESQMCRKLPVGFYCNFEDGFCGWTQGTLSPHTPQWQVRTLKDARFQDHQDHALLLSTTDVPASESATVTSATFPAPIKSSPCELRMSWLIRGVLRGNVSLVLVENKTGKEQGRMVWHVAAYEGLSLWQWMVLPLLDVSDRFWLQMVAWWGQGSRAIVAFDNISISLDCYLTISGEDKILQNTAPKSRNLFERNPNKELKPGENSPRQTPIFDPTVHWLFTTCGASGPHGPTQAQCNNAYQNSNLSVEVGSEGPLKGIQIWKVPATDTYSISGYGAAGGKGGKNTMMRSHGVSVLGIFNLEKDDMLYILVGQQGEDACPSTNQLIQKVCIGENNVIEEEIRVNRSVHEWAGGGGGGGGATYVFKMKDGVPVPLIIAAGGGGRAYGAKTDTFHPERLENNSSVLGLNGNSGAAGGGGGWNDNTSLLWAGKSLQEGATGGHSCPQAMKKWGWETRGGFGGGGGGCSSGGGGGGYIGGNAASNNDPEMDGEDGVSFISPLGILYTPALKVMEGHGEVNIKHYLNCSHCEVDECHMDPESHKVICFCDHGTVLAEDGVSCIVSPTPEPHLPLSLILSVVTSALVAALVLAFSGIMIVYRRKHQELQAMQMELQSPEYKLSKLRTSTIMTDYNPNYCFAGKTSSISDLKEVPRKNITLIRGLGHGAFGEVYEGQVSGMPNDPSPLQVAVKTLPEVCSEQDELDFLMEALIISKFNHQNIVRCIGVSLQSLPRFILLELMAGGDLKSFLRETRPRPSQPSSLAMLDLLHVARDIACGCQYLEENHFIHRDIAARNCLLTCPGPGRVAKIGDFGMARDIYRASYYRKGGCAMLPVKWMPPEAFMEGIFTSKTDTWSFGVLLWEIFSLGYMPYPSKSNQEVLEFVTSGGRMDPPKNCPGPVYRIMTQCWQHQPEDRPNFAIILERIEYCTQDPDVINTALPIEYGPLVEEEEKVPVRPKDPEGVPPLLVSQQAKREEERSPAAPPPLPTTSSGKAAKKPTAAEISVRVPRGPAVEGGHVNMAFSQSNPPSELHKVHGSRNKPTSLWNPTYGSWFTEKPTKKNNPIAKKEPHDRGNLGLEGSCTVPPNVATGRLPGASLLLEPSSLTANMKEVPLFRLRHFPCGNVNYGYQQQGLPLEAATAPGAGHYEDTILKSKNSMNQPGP

IC50 [1]: 0.81 µM
IC50 [2]: > 10 µM
IC50 (Insulin receptor): > 10 µM
Compound: O=c1c2cc(O)c(O)cc2oc2cc(O)c(C3O[C@H](CO)[C@@H](O)[C@H](O)[C@H]3O)c(O)c12 (stereo partly drawn) [Mangiferin]
